Our source for the mortality and pest or weed control values is patent US5486516A, “Furopyrimidine derivatives” (DowElanco, priority 1993, dated 1996).

Structures are written as SMILES.

In test [1] the test system is melon aphids (Aphis gossvpii Glover). Nature of the test: Mite/insect screen, melon aphids. The class given is in vivo. The note with it: Aphis, sprayed leaves, read-out: MA results (percent mortality); for mortality at 200 ppm: rate 200 ppm; for mortality at 400 ppm: rate 400 ppm. Summed up:
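Aphids established on squash cotyledons were sprayed to runoff with compound in acetone/alcohol with sulfonate/nonionic emulsifiers, diluted in water to test concentrations. Leaves dried 1 h. Percent mortality scored after standard exposure periods.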

For test [2], the system named is Pseudoperonospora cubensis (downy mildew). Put plainly: Plant pathology screen (Test 1), downy mildew on squash. Conditions: foliar, read-out: DOWN MDEW control rating.
For test [3], the system named is Botrytis cinerea (gray mold). Nature of the test: Plant pathology screen (Test 1), gray mold on grape berries. Conditions: read-out: GRAY MOLD control rating.
Test [4] relates to Southern corn rootworm (Diabrotica undecimpuctata howardi Barber). Nature of the test: Mite/insect screen, corn rootworm. Type of test: in vivo. The note with it: Diabrotica, soil, read-out: CRW results (percent mortality); for mortality at 12 ppm: CRW rate 12.00 ppm; for mortality at 24 ppm: CRW rate 24.00 ppm. Summed up:
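Compound in acetone/alcohol with emulsifiers, diluted with water; 1 mL applied to 15 g dry sandy soil holding a presoaked corn seed. After 6–12 h drying, five 2-3 instar larvae added, held at 23° C; percent mortality and phytotoxicity scored after standard exposure periods.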

In test [5] the test system is southern armyworm (Spodopetra eridania Cramer). Put plainly: Mite/insect screen, Southern armyworm. Type of test: in vivo. The note with it: Spodoptera eridania, sprayed leaves, read-out: SAW results (percent mortality); for mortality at 200 ppm: rate 200 ppm; for mortality at 400 ppm: rate 400 ppm. Put shortly: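 Compounds in acetone/alcohol with Toximul emulsifiers, diluted in water, sprayed to runoff on squash leaves at 10 psi and dried 1 h. Excised treated leaves fed to southern armyworm larvae in Petri dishes; percent mortality scored after standard exposure.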

For test [6], the system named is Pyricularia oryzae (rice blast). Nature of the test: whole plant or invertebrate. The class given is in vivo. The note with it: foliar, read-out: RICE BLAST control rating.
The subject of test [7] is Erysiphe graminis tritici (powdery mildew). Put plainly: Plant pathology screen (Test 1), powdery mildew on wheat. Conditions: Blumeria graminis, in Triticum aestivum, foliar, read-out: POWD MDEW control rating.
The test system of test [8] is Puccinia recondita tritici (leaf rust). Put plainly: Plant pathology screen (Test 1), leaf rust on wheat. Conditions: in Triticum aestivum, foliar, read-out: LEAF RUST control rating.
Description: This screen was used to evaluate the efficacy of the present compounds against a variety of different organisms that cause plant diseases.
The test compounds were formulated for application by dissolving 50 mg of the compound into 1.25 ml of solvent. The solvent was prepared by mixing 50 ml of "Tween 20" (polyoxyethylene (20) sorbitan monolaurate emulsifier) with 475 ml of acetone and 475 ml of ethanol. The solvent/compound solution was diluted to 125 ml with deionized water. The resulting formulation contains 400 ppm test chemical. Lower concentrations were obtained by serial dilution with the solvent-surfactant mixture.
The formulated test compounds were applied by foliar spray.
The formulated technical compounds were sprayed on all foliar surfaces of the host plants (or cut berry) to past run-off. Single pots of each host plant were placed on raised, revolving pedestals in a fume hood. Test solutions were sprayed on all foliar surfaces. All treatments were allowed to dry and the plants were inoculated with the appropriate pathogens within 2-4 hours.
The effectiveness of test compounds in controlling disease was rated using the following scale.
In test [9] the test system is Twospotted spider mites (Tetranychus urticae Koch). Nature of the test: Mite/insect screen, twospotted spider mites. Type of test: in vivo. The note with it: Tetranychus urticae, sprayed leaves, read-out: SM results (percent mortality); for mortality at 200 ppm: rate 200 ppm; for mortality at 400 ppm: rate 400 ppm. Put shortly:
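Squash cotyledons infested with mites were sprayed to runoff at 10 psi with compound in acetone/alcohol plus emulsifiers, diluted in water to the stated concentrations. Percent mortality and phytotoxicity were scored after standard exposure periods.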

In the case of `Cc1oc2ncnc(NCCc3ccc4ccccc4c3)c2c1C` [Example 22, 5,6-dimethyl-N-[2-(2-naphthyl)ethyl]furo[2,3-d]pyrimidin-4-amine], the mortality at 200 ppm in test [1], in [5] and in [9] was 0% each time. Besides, the mortality at 400 ppm in test [1], in test [5] and in test [9] was 0% in each case. Moreover, the pest or weed control at 400 µg/mL in [2], in test [3], in test [6], in [7] and in test [8] was 0 to 19% throughout. In test [4], the mortality at 12 ppm was determined as 0%. Further, the mortality at 24 ppm in test [4] was determined as 0%.

Turning to `Cc1oc2ncnc(NCCc3cccc(C(F)(F)F)c3)c2c1C` [Example 23, 5,6-dimethyl-N-[2-[3-(trifluoromethyl)phenyl]ethyl]furo[2,3-d]pyrimidin-4-amine], the mortality at 200 ppm in test [1], in [5] and in test [9] was 0% each time. Also, the mortality at 400 ppm in test [1], in [5] and in [9] was 0% each time. The pest or weed control at 400 µg/mL is 0 to 19% in [2]; 0 to 19% in test [3]; 0 to 19% in test [6]; 0 to 19% in test [7]; 20 to 89% in [8]. The mortality at 12 ppm in [4] was found to be 100%. Besides, the mortality at 24 ppm in test [4] is 0%.

As to `Cc1ccc(CCNc2ncnc3oc(C)c(C)c23)cc1` [Example 24, 5,6-dimethyl-N-[2-(4-methylphenyl)ethyl]furo[2,3-d]pyrimidin-4-amine], the mortality at 200 ppm in [1], in test [5] and in test [9] was 0% in each case. Besides, the mortality at 400 ppm in test [1], in test [5] and in test [9] was 0% throughout. Further, the pest or weed control at 400 µg/mL in [2] lay within 0 to 19%; in [3] it was 0 to 19%; in test [6], 20 to 89%; in test [7], 0 to 19%; in test [8], 90 to 100%. Moreover, in test [4], the mortality at 12 ppm amounted to 0%. Besides, in [4], the mortality at 24 ppm was found to be 0%.

For the compound `COc1ccc(CCNc2ncnc3oc(C)c(C)c23)cc1OC` [Example 25, 5,6-dimethyl-N-[2-(3,4-dimethoxyphenyl)ethyl]furo[2,3-d]pyrimidin-4-amine], the mortality at 200 ppm in test [1], in test [5] and in test [9] was 0% each time. The mortality at 400 ppm in test [1], in test [5] and in test [9] was 0% each time. In addition, the pest or weed control at 400 µg/mL was 0 to 19% in test [2]; 0 to 19% in test [3]; 0 to 19% in test [6]; 0 to 19% in test [7]; 20 to 89% in [8]. For the same compound, the mortality at 12 ppm in test [4] was found to be 0%. In addition, the mortality at 24 ppm in test [4] worked out at 0%.

In the case of `Cc1oc2ncnc(NCC(Cc3ccc(F)cc3)c3ccc(Cl)cc3)c2c1C` (stereo not shown) [Example 26, N-[2-(4-chlorophenyl)-3-(4-fluorophenyl)propyl]-5,6-dimethylfuro[2,3-d]pyrimidin-4-amine], the mortality at 200 ppm in test [1], in test [5] and in test [9] was 0% in each case. The mortality at 400 ppm in [1], in test [5] and in [9] was 0% in each case. Further, the pest or weed control at 400 µg/mL in test [2], in [3], in test [6], in test [7] and in test [8] was 0 to 19% in each case. In test [4], the mortality at 12 ppm was determined as 0%. Further, the mortality at 24 ppm in test [4] came out at 0%.

Take `COc1ccc(CCNc2ncnc3occ(C)c23)cc1OC` [Example 27, N-[2-(3,4-dimethoxyphenyl)ethyl]-5-methylfuro[2,3-d]pyrimidin-4-amine]: the mortality at 200 ppm in [1], in [5] and in test [9] was 0% each time. Besides, the mortality at 400 ppm in [1], in [5] and in test [9] was 0% throughout. Besides, the pest or weed control at 400 µg/mL lay in the range of 90 to 100% in test [2]; 0 to 19% in [3]; 0 to 19% in test [6]; 0 to 19% in test [7]; 90 to 100% in test [8]. Moreover, the mortality at 12 ppm in test [4] stood at 0%. Also, the mortality at 24 ppm in test [4] was determined as 0%.

Turning to `COc1ccccc1Oc1ncnc2oc(C)c(C)c12` [Example 28, 5,6-dimethyl-4-(2-methoxyphenoxy)furo[2,3-d]pyrimidine], the mortality at 200 ppm in test [1] is 30%; in test [5], 0%; in [9], 90%. Besides, the mortality at 400 ppm in [1], in [5] and in test [9] was 0% in each case. The pest or weed control at 400 µg/mL in test [2], in [3], in test [6], in test [7] and in [8] was 0 to 19% in each case. In addition, the mortality at 12 ppm in test [4] worked out at 0%. The mortality at 24 ppm in [4] stood at 0%.

Consider `Cc1ccccc1Oc1ncnc2oc(C)c(C)c12` [Example 29, 5,6-dimethyl-4-(2-methylphenoxy)furo[2,3-d]pyrimidine], for which the mortality at 200 ppm in [1], in [5] and in test [9] was 0% in each case. Also, the mortality at 400 ppm in [1], in test [5] and in test [9] was 0% each time. Also, the pest or weed control at 400 µg/mL in [2] lay in the range of 20 to 89%; in test [3] it was 0 to 19%; in test [6] it was 20 to 89%; in [7] it was 20 to 89%; in [8] it was 20 to 89%. In addition, the mortality at 12 ppm in [4] was 0%. For the same compound, the mortality at 24 ppm in test [4] was 0%.

Consider `COc1ccc(CCNc2ncnc3oc4c(c23)CCCC4)cc1` [Example 30, N-[2-(4-methoxyphenyl)ethyl]-5,6,7,8-tetrahydrobenzofuro[2,3-d]pyrimidin-4-amine], for which the mortality at 200 ppm in test [1], in test [5] and in test [9] was 0% each time. The mortality at 400 ppm in test [1] is 0%; in test [5], 90%; in test [9] it was 0%. Further, the pest or weed control at 400 µg/mL in [2] fell in the range of 20 to 89%; in test [3], 0 to 19%; in test [6], 0 to 19%; in test [7], 0 to 19%; in test [8], 20 to 89%. For the same compound, in test [4], the mortality at 12 ppm stood at 0%. In test [4], the mortality at 24 ppm is 0%.

For the compound `Cc1cc2c(NCCc3ccc4ccccc4c3)ncnc2o1` [Example 31, 6-methyl-N-[2-(2-naphthalenyl)ethyl]furo[2,3-d]pyrimidine-4-amine], the mortality at 200 ppm in test [1] turned out to be 90%; in [5], 100%; in test [9], 20%. In addition, the mortality at 400 ppm came to 0% in test [1], 80% in test [5] and 100% in [9]. In addition, the pest or weed control at 400 µg/mL in test [2] fell in the range of 90 to 100%; in [3], 0 to 19%; in test [6] it was 20 to 89%; in test [7], 20 to 89%; in test [8], 90 to 100%. Besides, the mortality at 12 ppm in test [4] came out at 0%. In test [4], the mortality at 24 ppm was determined as 0%.
